Measurements published in publication PMC11299231 (Steroids, 2024).
Read-outs that look alike come from different tables or passages of the source.

What was measured:
[1] = test system: PC3 (AR-); assay: Antiproliferative activity assay; type: cell-based, human; settings: for IC50: 48 h, read-out: IC50 ± SEM, PC3 (AR−)
[2] = test system: DU145 (AR-); assay: Antiproliferative activity assay; type: cell-based, human; settings: for IC50: read-out: IC50 ± SEM, DU145 (AR−)
[3] = test system: T84 wt; assay: Antiproliferative activity assay; type: cell-based, human; settings: for IC50: 48 h, read-out: IC50 ± SEM, T84 wt
[4] = test system: HT-29; assay: Antiproliferative activity assay; type: cell-based, human; settings: read-out: IC50 ± SEM, HT-29
[5] = test system: HaCaT; assay: Antiproliferative activity assay; type: cell-based, human; settings: for IC50: 48 h, read-out: IC50 ± SEM, HaCaT
[6] = test system: M21; assay: Antiproliferative activity assay; type: cell-based, human; settings: read-out: IC50 ± SEM, M21
[7] = target: T1, CYP3A4 (Homo sapiens, UniProt P08684); settings: read-out: IC50, BFC debenzylation activity of CYP3A4; soluble reconstituted system, 37 °C, BFC substrate
[8] = target: T1, CYP3A4; settings: Soret band blue shift, recombinant CYP3A4
[9] = test system: MDA-MB-231 (ER-); assay: Antiproliferative activity assay; type: cell-based, human; settings: read-out: IC50 ± SEM, MDA-MB-231 (ER−)
[10] = test system: MCF7 (ER + ); assay: Antiproliferative activity assay; type: cell-based, human; settings: read-out: IC50 ± SEM, MCF7 (ER + )
[11] = test system: LNCaP (AR + ); assay: Antiproliferative activity assay; type: cell-based, human; settings: read-out: IC50 ± SEM, LNCaP (AR + ); prostate adenocarcinoma cells, 48 h, SRB
[12] = at the maximum concentration tested (5 μM)
[13] = at the maximal concentration tested (5 μM)
[14] = breast carcinoma cells, 48 h, SRB

T1 sequence (P08684 whole entry): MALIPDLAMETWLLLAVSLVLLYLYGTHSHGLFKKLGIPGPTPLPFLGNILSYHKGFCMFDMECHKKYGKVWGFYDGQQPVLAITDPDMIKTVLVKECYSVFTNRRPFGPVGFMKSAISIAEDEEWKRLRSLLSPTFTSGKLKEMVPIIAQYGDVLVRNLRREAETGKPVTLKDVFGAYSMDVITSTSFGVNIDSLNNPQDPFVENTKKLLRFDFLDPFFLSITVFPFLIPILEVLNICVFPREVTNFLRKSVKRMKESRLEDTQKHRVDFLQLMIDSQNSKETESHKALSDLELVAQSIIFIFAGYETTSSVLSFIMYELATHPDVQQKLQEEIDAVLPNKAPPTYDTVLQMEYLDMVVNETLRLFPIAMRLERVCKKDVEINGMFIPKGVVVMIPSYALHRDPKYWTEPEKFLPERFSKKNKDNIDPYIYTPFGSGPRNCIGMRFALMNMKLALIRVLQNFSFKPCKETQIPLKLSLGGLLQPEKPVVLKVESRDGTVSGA

For CC(O)(CS(=O)(=O)c1ccc(F)cc1)C(=O)Nc1ccc(C#N)c(C(F)(F)F)c1 (centres unmarked) [Bicalutamide, bicalutamide, reference compound], which IC50 ([1]; Homo sapiens, PC3/AR) is on record?
Its IC50 is 62 ± 3 µM.

What about the IC50 ([2]; Homo sapiens, DU-145, 48 h) of the same molecule?
Its IC50 is 52 ± 1 µM.

What about the IC50 ([3]; Homo sapiens) of the same molecule?
The IC50 was 56 ± 2 µM.

And the IC50 ([4]; Homo sapiens, HT-29, 48 h)?
The IC50 was 42 ± 2 µM.

What about the IC50 ([5]; Homo sapiens, HaCaT) of the same molecule?
The IC50 was 95 ± 5 µM.

And the IC50 ([6]; Homo sapiens, M21, 48 h)?
The IC50 was 49 ± 1 µM.

Which results are given for C[C@]12CC[C@H]3[C@@H]([C@H](C/C=C/Cn4cc([C@]5(O)CC[C@H]6[C@@H]7CCc8cc(O)ccc8[C@H]7CC[C@@]65C)nn4)CC4=CC(=O)CC[C@@]43C)[C@@H]1CC[C@@H]2O [Compound 1, (E)-17β-hydroxy-7α-{4-[4-(estradiol-17α-yl)-[1,2,3]triazol-1-yl]-but-2-enyl}−4-androsten-3-one]?
IC50 [7]: > 5 µM; antiproliferative effect on PC3 (AR-) cells [1, 12]: no effect; IC50 ([1]; prostate adenocarcinoma cells, SRB): > 5 µM; high-spin shift [8]: 23%; antiproliferative effect on DU145 (AR-) cells [2, 12]: no effect; IC50 ([2]; prostate adenocarcinoma cells, 48 h, SRB): > 5 µM; antiproliferative activity on T84 wt cells [3, 13]: inactive; IC50 ([3]; colon adenocarcinoma cells, SRB): > 5 µM; IC50 [9, 14]: > 5 µM; IC50 [10, 14]: 4.9 ± 0.4 µM; IC50 ([4]; colon carcinoma cells, 48 h, SRB): 3.5 ± 0.1 µM; antiproliferative activity on HaCaT cells [5, 13]: inactive; IC50 ([5]; normal immortalized human keratinocytes, SRB): > 5 µM; IC50 ([6]; melanoma cells, 48 h, SRB): 2.3 ± 0.1 µM; IC50 [11]: > 5 µM

CC/C(=C(\c1ccc(O)cc1)c1ccc(OCCN(C)C)cc1)c1ccccc1 [Compound 4-OHT, 4-hydroxytamoxifen, reference compound] was tested. Which IC50 ([1]; Homo sapiens, PC3/AR) did it give?
Its IC50 is 13 ± 1 µM.

What about the IC50 ([2]; Homo sapiens, DU-145, 48 h) of the same molecule?
The IC50 was 13 ± 1 µM.

What about the IC50 ([3]; Homo sapiens) of the same molecule?
Its IC50 is 6.9 ± 0.3 µM.

What about the IC50 ([9]; Homo sapiens, MDA-MB-231, 48 h) of the same molecule?
The IC50 was 7 ± 1 µM.

And the IC50 ([10]; Homo sapiens, MCF7, 48 h)?
The IC50 was 0.013 ± 0.005 µM.

And the IC50 ([4]; Homo sapiens, HT-29, 48 h)?
The IC50 was 0.9 ± 0.2 µM.

And the IC50 ([5]; Homo sapiens, HaCaT)?
The IC50 was 10.4 ± 0.6 µM.

And the IC50 ([6]; Homo sapiens, M21, 48 h)?
The IC50 was 4.2 ± 0.2 µM.
